target: T1, Recombinant human BRD4 containing dual bromodomains (BRD4-BD12 (1-477)) (Homo sapiens, UniProt O60885); experiment: BRD4 Alphascreen binding assay
T1 construct: Recombinant human BRD4 containing dual bromodomains (BRD4-BD12 (1-477)); made in house; host or cells: E. coli BL21-CodonPlus (DE3), modified pET vector
Method in brief: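 AlphaScreen proximity between Ni-chelate-bound BRD4-BD12 (1-477) and streptavidin-captured H4 K5/K8/K12/K16-acetyl peptide measured after 1 h room-temperature compound incubation and 30 min with 7.5 μg/ml beads. Buffer: 50 mM HEPES pH 7.5, 50 mM NaCl, 0.01% BSA, 0.01% Triton X-100; data plate-normalized and four-parameter fit for IC50.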

Question: For Cc1nn(CC(C)(C)O)cc1-n1cc(-c2ccc(C(=O)O)cc2OC(F)(F)F)c2cc(-c3c(C)noc3C)cnc21 [P-0365, 4-(5-(3,5-dimethylisoxazol-4-yl)-1-(1-(2-hydroxy-2-methylpropyl)-3-methyl-1H-pyrazol-4-yl)-1H-pyrrolo[2,3-b]pyridin-3-yl)-3-(trifluoromethoxy)benzoic acid], which IC50 is on record?
Answer: The IC50 was 1 to 8 µM.

Question: How did the IC50 turn out when Cc1noc(C)c1-c1cnc2c(c1)c(-c1ccc(C(=O)O)cc1OC(F)(F)F)c(C)n2C(C1CC1)C1CC1 [P-0343, 4-(1-(dicyclopropylmethyl)-5-(3,5-dimethylisoxazol-4-yl)-2-methyl-1H-pyrrolo[2,3-b]pyridin-3-yl)-3-(trifluoromethoxy)benzoic acid] was run?
Answer: Its IC50 is 8 to 1000 µM.

Question: With Cc1noc(C)c1-c1cnc2c(c1)c(-c1ccc(C(=O)O)cc1OC(F)(F)F)cn2-c1ccc(C(N)=O)cc1 [P-0323, 4-(1-(4-carbamoylphenyl)-5-(3,5-dimethylisoxazol-4-yl)-1H-pyrrolo[2,3-b]pyridin-3-yl)-3-(trifluoromethoxy)benzoic acid] as the compound, how does the IC50 read?
Answer: The IC50 was 1 to 8 µM.

Question: How did the IC50 turn out when CCOc1cc(C(=O)O)cc(Cl)c1-c1cn(C2CCOCC2)c2ncc(-c3c(C)noc3C)cc12 [P-0371, 3-chloro-4-(5-(3,5-dimethylisoxazol-4-yl)-1-(tetrahydro-2H-pyran-4-yl)-1H-pyrrolo[2,3-b]pyridin-3-yl)-5-ethoxybenzoic acid] was run?
Answer: Its IC50 is 1 to 8 µM.

Question: Which IC50 does the source give for CCOc1cc(C(=O)O)nc(OCC)c1-c1cn(-c2ccc(F)cc2F)c2ncc(-c3c(C)noc3C)cc12 [P-0329, 5-(1-(2,4-difluorophenyl)-5-(3,5-dimethylisoxazol-4-yl)-1H-pyrrolo[2,3-b]pyridin-3-yl)-4,6-diethoxypicolinic acid] here?
Answer: Its IC50 is 1 to 8 µM.

Question: Which IC50 does the source give for COc1cc(C(=O)O)ncc1-c1cn(C2CCOCC2)c2ncc(-c3c(C)noc3C)cc12 [P-0362, 5-(5-(3,5-dimethylisoxazol-4-yl)-1-(tetrahydro-2H-pyran-4-yl)-1H-pyrrolo[2,3-b]pyridin-3-yl)-4-methoxypicolinic acid] here?
Answer: The IC50 was 0.0001 to 1 µM.

Question: How did the IC50 turn out when Cc1cc(C(=O)O)cc(OCC(F)F)c1-c1cn(C2CCOCC2)c2ncc(-c3c(C)noc3C)cc12 [P-0367, 3-(2,2-difluoroethoxy)-4-(5-(3,5-dimethylisoxazol-4-yl)-1-(tetrahydro-2H-pyran-4-yl)-1H-pyrrolo[2,3-b]pyridin-3-yl)-5-methylbenzoic acid] was run?
Answer: The IC50 was 1 to 8 µM.

Question: How did the IC50 turn out when Cc1cc(-c2cn(C(c3ccccn3)C3CCCC3)c3ncc(-c4c(C)noc4C)cc23)ccc1C(=O)O (stereo not shown) [P-0028, 4-(1-(cyclopentyl(pyridin-2-yl)methyl)-5-(3,5-dimethylisoxazol-4-yl)-1H-pyrrolo[2,3-b]pyridin-3-yl)-2-methylbenzoic acid] was run?
Answer: Its IC50 is 1 to 8 µM.

Question: CCOc1cc(C(=O)O)cc(Cl)c1-c1cn(C(C2CC2)C2CC2)c2ncc(-c3c(C)noc3C)cc12 [P-0370, 3-chloro-4-(1-(dicyclopropylmethyl)-5-(3,5-dimethylisoxazol-4-yl)-1H-pyrrolo[2,3-b]pyridin-3-yl)-5-ethoxybenzoic acid] was tested. Which IC50 did it give?
Answer: Its IC50 is 1 to 8 µM.

Question: Cc1noc(C)c1-c1cnc2c(c1)c(-c1ccc(C(=O)O)cc1OC(F)(F)F)cn2C1(C)CCOCC1 [P-0385, 4-(5-(3,5-dimethylisoxazol-4-yl)-1-(4-methyltetrahydro-2H-pyran-4-yl)-1H-pyrrolo[2,3-b]pyridin-3-yl)-3-(trifluoromethoxy)benzoic acid] was tested. Which IC50 did it give?
Answer: The IC50 was 8 to 1000 µM.

Question: With Cc1noc(C)c1-c1cnc2c(c1)c(-c1ccc(C(=O)O)cc1OC1CCC1)cn2-c1cnn(C(F)F)c1C [P-0353, 3-cyclobutoxy-4-(1-(1-(difluoromethyl)-5-methyl-1H-pyrazol-4-yl)-5-(3,5-dimethylisoxazol-4-yl)-1H-pyrrolo[2,3-b]pyridin-3-yl)benzoic acid] as the compound, how does the IC50 read?
Answer: Its IC50 is 8 to 1000 µM.

Question: With Cc1noc(C)c1-c1cnc2c(c1)c(-c1ccc(C(=O)O)cc1OC(F)(F)F)cn2-c1cnc(C2CC2)nc1 [P-0384, 4-(1-(2-cyclopropylpyrimidin-5-yl)-5-(3,5-dimethylisoxazol-4-yl)-1H-pyrrolo[2,3-b]pyridin-3-yl)-3-(trifluoromethoxy)benzoic acid] as the compound, how does the IC50 read?
Answer: Its IC50 is 1 to 8 µM.

Question: How did the IC50 turn out when Cc1noc(C)c1-c1cnc2c(c1)c(-c1ccc(C(=O)O)cc1OC(C)C)cn2-c1ncccc1C#N [P-0336, 4-(1-(3-cyanopyridin-2-yl)-5-(3,5-dimethylisoxazol-4-yl)-1H-pyrrolo[2,3-b]pyridin-3-yl)-3-isopropoxybenzoic acid] was run?
Answer: The IC50 was 8 to 1000 µM.

Question: Which IC50 does the source give for Cc1noc(C)c1-c1cnc2c(c1)c(-c1ccc(C(=O)O)cc1OCC(F)F)cn2-c1cnc(N2CCC2)nc1 [P-0328, 4-(1-(2-(azetidin-1-yl)pyrimidin-5-yl)-5-(3,5-dimethylisoxazol-4-yl)-1H-pyrrolo[2,3-b]pyridin-3-yl)-3-(2,2-difluoroethoxy)benzoic acid] here?
Answer: Its IC50 is 8 to 1000 µM.

Question: For Cc1noc(C)c1-c1cnc2c(c1)c(-c1ccc(C(=O)O)cc1OC(F)(F)F)cn2C1CCCC1 [P-0382, 4-(1-cyclopentyl-5-(3,5-dimethylisoxazol-4-yl)-1H-pyrrolo[2,3-b]pyridin-3-yl)-3-(trifluoromethoxy)benzoic acid], which IC50 is on record?
Answer: Its IC50 is 1 to 8 µM.

Question: Which IC50 does the source give for Cc1noc(C)c1-c1cnc2c(c1)c(-c1c(F)cc(C(=O)O)cc1OCC(F)F)cn2-c1ccccc1 [P-0327, 3-(2,2-difluoroethoxy)-4-(5-(3,5-dimethylisoxazol-4-yl)-1-phenyl-1H-pyrrolo[2,3-b]pyridin-3-yl)-5-fluorobenzoic acid] here?
Answer: Its IC50 is 1 to 8 µM.

Question: How did the IC50 turn out when Cc1noc(C)c1-c1cnc2c(c1)c(-c1ccc(C(=O)O)cc1OC1CCC1)cn2-c1ncccc1C#N [P-0334, 4-(1-(3-cyanopyridin-2-yl)-5-(3,5-dimethylisoxazol-4-yl)-1H-pyrrolo[2,3-b]pyridin-3-yl)-3-cyclobutoxybenzoic acid] was run?
Answer: The IC50 was 8 to 1000 µM.

Question: For COc1cc(C(=O)O)ncc1-c1cn(-c2ccncc2Cl)c2ncc(-c3c(C)noc3C)cc12 [P-0324, 5-(1-(3-chloropyridin-4-yl)-5-(3,5-dimethylisoxazol-4-yl)-1H-pyrrolo[2,3-b]pyridin-3-yl)-4-methoxypicolinic acid], which IC50 is on record?
Answer: Its IC50 is 1 to 8 µM.

Question: Which IC50 does the source give for CCOc1cc(C(=O)O)c(F)cc1-c1cn(-c2ccccc2F)c2ncc(-c3c(C)noc3C)cc12 [P-0377, 4-(5-(3,5-dimethylisoxazol-4-yl)-1-(2-fluorophenyl)-1H-pyrrolo[2,3-b]pyridin-3-yl)-5-ethoxy-2-fluorobenzoic acid] here?
Answer: The IC50 was 1 to 8 µM.

Question: Which IC50 does the source give for Cc1noc(C)c1-c1cnc2c(c1)c(-c1ccc(C(=O)O)cc1OC(F)(F)F)cn2CC1(C#N)CCC1 [P-0364, 4-(1-((1-cyanocyclobutyl)methyl)-5-(3,5-dimethylisoxazol-4-yl)-1H-pyrrolo[2,3-b]pyridin-3-yl)-3-(trifluoromethoxy)benzoic acid] here?
Answer: The IC50 was 1 to 8 µM.

Question: How did the IC50 turn out when Cc1noc(C)c1-c1cnc2c(c1)c(-c1ccc(C(=O)O)cc1OC(C)C)cn2-c1cnn(C(F)F)c1C [P-0354, 4-(1-(1-(difluoromethyl)-5-methyl-1H-pyrazol-4-yl)-5-(3,5-dimethylisoxazol-4-yl)-1H-pyrrolo[2,3-b]pyridin-3-yl)-3-isopropoxybenzoic acid] was run?
Answer: Its IC50 is 8 to 1000 µM.

Question: How did the IC50 turn out when COc1cc(C(=O)O)ncc1-c1cn(C(C2CC2)C2CC2)c2ncc(-c3c(C)noc3C)cc12 [P-0339, 5-(1-(dicyclopropylmethyl)-5-(3,5-dimethylisoxazol-4-yl)-1H-pyrrolo[2,3-b]pyridin-3-yl)-4-methoxypicolinic acid] was run?
Answer: The IC50 was 1 to 8 µM.
